Drawing on ChEMBL document CHEMBL3352417, “Confronting the challenges of discovery of novel antibacterial agents” (Bioorg Med Chem Lett, 2014), this text covers IC50 and MIC90 for three molecules.

≈ marks a conversion by molar mass, not a printed value. Some results are limits rather than exact numbers.

A short description of test [1]: Inhibition of Enterococcus faecalis DNA gyrase subunit B.
Test [2] is described as follows: Inhibition of Enterococcus faecalis ParE.
Test [3] can be described thus: Inhibition of beta-lactamase (unknown origin).
In a further test the test system is Staphylococcus aureus. Kind of test: Antimicrobial activity against Staphylococcus aureus. The class given is functional.
The next test relates to Streptococcus pneumoniae. Description: Antimicrobial activity against Streptococcus pneumoniae. The class given is functional.
Test [4] addresses Voltage-gated inwardly rectifying potassium channel KCNH2 (Homo sapiens, UniProt Q12809). Kind of test: Inhibition of human ERG.

Voltage-gated inwardly rectifying potassium channel KCNH2, sequence (Q12809 whole entry): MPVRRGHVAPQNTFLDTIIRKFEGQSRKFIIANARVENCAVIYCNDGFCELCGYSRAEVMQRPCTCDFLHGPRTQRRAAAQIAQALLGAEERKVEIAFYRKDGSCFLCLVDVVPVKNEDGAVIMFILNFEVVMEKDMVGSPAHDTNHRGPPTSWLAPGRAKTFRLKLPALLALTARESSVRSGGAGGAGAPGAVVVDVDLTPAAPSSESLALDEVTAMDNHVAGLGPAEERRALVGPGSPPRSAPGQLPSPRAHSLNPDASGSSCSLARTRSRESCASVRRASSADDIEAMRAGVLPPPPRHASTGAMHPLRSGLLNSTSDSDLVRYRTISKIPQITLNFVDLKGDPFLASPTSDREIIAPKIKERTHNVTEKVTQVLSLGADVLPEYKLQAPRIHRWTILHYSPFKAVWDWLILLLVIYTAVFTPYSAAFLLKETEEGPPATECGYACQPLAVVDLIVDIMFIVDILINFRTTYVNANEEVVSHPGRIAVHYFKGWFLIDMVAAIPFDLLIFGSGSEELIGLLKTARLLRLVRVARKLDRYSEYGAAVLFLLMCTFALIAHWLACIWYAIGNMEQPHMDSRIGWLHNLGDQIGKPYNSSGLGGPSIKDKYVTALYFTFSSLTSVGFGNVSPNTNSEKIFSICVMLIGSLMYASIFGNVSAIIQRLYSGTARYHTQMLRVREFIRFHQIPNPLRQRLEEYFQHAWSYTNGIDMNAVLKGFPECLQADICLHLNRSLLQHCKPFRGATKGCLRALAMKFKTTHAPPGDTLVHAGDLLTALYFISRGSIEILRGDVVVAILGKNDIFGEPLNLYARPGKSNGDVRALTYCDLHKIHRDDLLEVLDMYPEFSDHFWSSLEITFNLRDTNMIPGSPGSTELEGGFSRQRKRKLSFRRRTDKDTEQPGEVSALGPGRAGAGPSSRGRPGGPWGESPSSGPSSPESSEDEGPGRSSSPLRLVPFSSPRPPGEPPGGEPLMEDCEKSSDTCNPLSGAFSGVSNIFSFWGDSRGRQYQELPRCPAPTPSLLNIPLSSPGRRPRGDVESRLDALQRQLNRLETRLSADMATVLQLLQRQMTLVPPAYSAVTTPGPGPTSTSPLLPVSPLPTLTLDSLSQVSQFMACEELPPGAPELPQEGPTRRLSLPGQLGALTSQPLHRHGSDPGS

In the case of `CNc1cc(F)cc2c1[nH]c1nc(Oc3cnc(C)nc3)nc(N3CC4[C@H](N)C[C@]4(C)C3)c12` (stereo partly specified), the IC50 in test [1] and in test [2] was below 0.0003 µM throughout.
Consider `O=C(O)C[C@@H]1CC[C@H](NC(=O)Cc2cccs2)B(O)O1` [VABORBACTAM], for which the midpoint of inhibition in test [3], the IC50, lay at 0.009 µM. This lies in the single-digit nanomolar range.
Turning to `O=c1ccc2ncc(=O)n3c2n1C[C@H]3CN1CCC(NCc2cc3c(cn2)OCCC3)CC1` [GEPOTIDACIN], the MIC90 (commonly the lowest concentration that inhibits either 90% of growth or 90% of the strains tested, depending on the study) with Staphylococcus aureus stood at 0.5 µg/mL (≈ 1.11 µM); in the test on Streptococcus pneumoniae, 0.25 µg/mL (≈ 0.557 µM). Also, in test [4], the concentration for half-maximal inhibition (IC50) (usually the concentration that gives 50% inhibition) came to 1400 µM.
